Source: publication PMC11808397, “Development of selective nanomolar cyclic peptide ligands as GBA1 enzyme stabilisers” (RSC Chemical Biology, 2025)
Positions of bridges follow the written chain, without caps; N, C: chain ends. Non-standard residues stand in square brackets, D forms with d. Residues, ends and D or L forms follow the SMILES beside them.

Key:
[1] = target: T1, recombinant human GBA1 (rhGBA1, Cerezyme) (Homo sapiens, UniProt P04062, R534H); test: In vitro rhGBA1 inhibition, 4-MU-β-D-glucopyranoside hydrolysis; assay type: biochemical; settings: Cerezyme 14 nM, 3.7 mM 4-MU-β-D-glucopyranoside, McIlvaine pH 5.2, 30 min pre-incubation 37 °C + 30 min, mean ± SD from 3 technical triplicates
T1 construct: purchased Cerezyme
T1 sequence (P04062 40-536 R534H): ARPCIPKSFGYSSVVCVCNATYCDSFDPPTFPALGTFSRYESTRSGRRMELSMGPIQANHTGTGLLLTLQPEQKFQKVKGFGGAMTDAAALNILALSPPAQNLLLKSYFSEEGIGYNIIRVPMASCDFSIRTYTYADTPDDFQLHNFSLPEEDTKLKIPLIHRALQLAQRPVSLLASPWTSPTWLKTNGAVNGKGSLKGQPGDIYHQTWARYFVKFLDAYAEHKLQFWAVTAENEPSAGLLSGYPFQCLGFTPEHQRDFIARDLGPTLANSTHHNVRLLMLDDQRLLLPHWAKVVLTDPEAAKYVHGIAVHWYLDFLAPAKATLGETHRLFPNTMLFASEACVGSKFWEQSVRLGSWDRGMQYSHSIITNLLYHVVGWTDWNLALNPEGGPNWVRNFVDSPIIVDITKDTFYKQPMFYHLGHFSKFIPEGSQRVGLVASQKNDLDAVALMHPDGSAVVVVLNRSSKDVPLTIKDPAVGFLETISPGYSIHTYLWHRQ
Description: (§1) Based on the pull-down validation, a set of eight cyclic peptides (L1, L2, L4, L6, D1, D8, D12 and D13) were identified, synthesized, and evaluated for their inhibitory potency against recombinant human GBA1 (rhGBA1, Cerezyme®) and their selectivity over human β-glucosidases GBA2 and GBA3. Half-maximum inhibitory concentration (IC50) values for β-glucosidases were determined in vitro by measuring hydrolysis of 4-methylumbelliferyl-β-D-glucopyranoside (4-MU-β-D-Glu) fluorogenic substrate. […]
Pure product fractions were pooled, lyophilized, and dissolved again in DMSO before concentration was determined by A280 using a sample diluted in phosphate buffer at pH 7.4 and extinction coefficients determined from the sequence using the Expasy ProtParam online tool (https://web.expasy.org/protparam/). […]
2.5. In vitro IC50 and Ki measurements
For GBA1, IC50 values were determined using the recombinant human GBA1 (rhGBA1, Cerezyme) following described procedures.4 Enzyme activity was measured using 3.7 mM 4-methylumbeliferone (4MU)-β-D-glucopyranoside in 150 mM McIlvaine buffer pH 5.2 supplemented with 0.1% bovine serum albumin (BSA) (w/v), 0.1% Triton X-100 (v/v), and 0.2% sodium taurocholate (w/v). Varying concentrations of inhibitor (12.5 µL) were incubated with 12.5 µL of enzyme (final concentration 14 nM) at 37 °C for 30 min. Following this, 100 µL of 4MU substrate was added and the samples were again incubated at 37 °C for 30 min. The reaction was quenched using excess 1 M NaOH-glycine (200 µL, pH 10.3) and 4MU fluorescence was measured using a LS55 fluorimeter (λEx 366 nm and λEm 445 […]
30 min at 37 °C (12.5 µL) and subsequently incubated with the tested ligands at a range of concentrations for 30 min at 37 °C (12.5 µL), after which 100 µL 4MU-β-D-glucopyranoside was added for a final incubation of 30 min at 37 °C, quenched with 200 µL 1 M NaOH-glycine (pH 10.3) and fluorescence was measured. IC50 values were calculated using GraphPad Prism version 8.

GBA2 = target: T2, GBA2 (Homo sapiens, UniProt Q9HCG7); test: GBA2 inhibition in overexpressing HEK293T lysates; assay type: biochemical; settings: McIlvaine pH 5.8, 4-MU substrate
T2 construct: expressed in transfected cells
T2 sequence (Q9HCG7 1-927): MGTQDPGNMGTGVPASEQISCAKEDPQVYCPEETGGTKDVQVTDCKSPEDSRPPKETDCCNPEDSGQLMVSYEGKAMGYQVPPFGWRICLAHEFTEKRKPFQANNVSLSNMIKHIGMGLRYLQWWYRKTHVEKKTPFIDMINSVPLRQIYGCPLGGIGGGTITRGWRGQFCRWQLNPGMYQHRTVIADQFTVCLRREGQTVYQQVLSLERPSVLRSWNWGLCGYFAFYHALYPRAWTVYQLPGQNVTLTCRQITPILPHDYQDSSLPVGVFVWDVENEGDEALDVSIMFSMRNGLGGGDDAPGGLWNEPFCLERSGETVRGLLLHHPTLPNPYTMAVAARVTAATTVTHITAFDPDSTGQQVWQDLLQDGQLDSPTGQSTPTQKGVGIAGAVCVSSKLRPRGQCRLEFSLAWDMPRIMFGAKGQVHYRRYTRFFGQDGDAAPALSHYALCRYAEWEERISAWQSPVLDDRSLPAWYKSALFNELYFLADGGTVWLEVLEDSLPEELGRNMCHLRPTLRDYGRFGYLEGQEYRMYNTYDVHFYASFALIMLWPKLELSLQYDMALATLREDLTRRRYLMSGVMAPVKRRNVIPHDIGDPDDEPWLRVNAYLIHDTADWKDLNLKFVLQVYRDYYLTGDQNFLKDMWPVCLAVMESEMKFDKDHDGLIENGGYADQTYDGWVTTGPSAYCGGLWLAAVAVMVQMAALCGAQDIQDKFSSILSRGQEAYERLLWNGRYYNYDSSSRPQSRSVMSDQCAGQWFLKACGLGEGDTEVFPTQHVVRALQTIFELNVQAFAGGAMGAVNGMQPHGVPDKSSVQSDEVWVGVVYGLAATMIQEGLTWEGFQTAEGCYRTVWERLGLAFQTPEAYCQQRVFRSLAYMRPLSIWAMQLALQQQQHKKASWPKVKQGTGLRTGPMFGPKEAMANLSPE
Description: as §1
2.5. In vitro IC50 and Ki measurements […]
nM) at 37 °C for 30 min. Following this, 100 µL of 4MU substrate was added and the samples were again incubated at 37 °C for 30 min. The reaction was quenched using excess 1 M NaOH-glycine (200 µL, pH 10.3) and 4MU fluorescence was measured using a LS55 fluorimeter (λEx 366 nm and λEm 445 […]
GBA2 and GBA3 IC50 values were determined following a similar protocol,5 using stable GBA2 or GBA3 HEK293T over-expression cell lysates and McIlvaine buffer pH 5.8 with 0.1 % BSA (w/v) and 100 mM HEPES with 0.1 % BSA, respectively. Covalent inhibitor of endogenous GBA1 (1 µM Bodipy green-cyclophellitol β-epoxide activity based probe) was added for both GBA2 and GBA3 assays, and GBA2 inhibitor N-(5-adamantane-1-yl-methoxy-pentyl)-deoxynojirimycin, AMP-DNM at 1 nM) was added for GBA3 assay. Cell lysates were pre-incubated with the aforementioned GBA1/GBA2 inhibitors for 30 min at 37 °C (12.5 µL) and subsequently incubated with the tested ligands at a range of concentrations for 30 min at 37 °C (12.5 µL), after which 100 µL 4MU-β-D-glucopyranoside was added for a final incubation of 30 min at 37 °C, quenched with 200 µL 1 M NaOH-glycine (pH 10.3) and fluorescence was measured. IC50 values were calculated using GraphPad Prism version 8.

RAW 264.7 cells = test: In situ competitive activity-based protein profiling (cABPP); assay type: cell-based; settings: 0-100 μM for 4 hours, then JJB75 10 nM for 2 hours, fluorescence SDS-gel scanning
Description: We further investigated GBA1 inhibition in cells. Human dermal fibroblasts were initially incubated with peptide concentrations ranging from 0.1 μM (from 0.001 μM for L4, D1 and D12) to 100 μM of each cyclic peptide for 3 hours. […] To further confirm the inability of these peptides to cross the cell membrane, we conducted in situ competitive activity-based protein profiling (cABPP) experiments using RAW 264.7 monocyte/macrophage-like cells. […]
Figure S6. […] Cells were washed, lysed and analysed by fluorescent readout. […]
Human fibroblasts (Cambrex-Lonza CC-2511) were cultured in complete DMEM/F12 growth medium supplemented with 10% (v/v) foetal calf serum and 0.1 % (w/v) penicillin/streptomycin at 37 °C and 5% CO2. […] GlcCer and GlcSph lipids were quantified as described below. In parallel, enzyme activity in cell lysates was measured using 3.7 mM 4-methylumbeliferone (4MU)-β-D-glucopyranoside in 150 mM McIlvaine buffer pH 5.2 supplemented with 0.1% bovine serum albumin (BSA) (w/v), 0.1% Triton X-100 (v/v), and 0.2% sodium taurocholate (w/v) as described above (see Table S1). […]
Cells were kept on ice and equal protein amounts were loaded per well on a 10% SDS-PAGE gel. Gels were scanned for fluorescence and then stained with Coomassie Brilliant Blue for loading control. […]
Levels of GlcCer and GlcSph were determined with a modified acidic Bligh & Dyer extraction (Figure 2 […]

| rhGBA1 IC50 [1] | IC50 ([1]; SD) | IC50 (GBA2) | SMILES | competition with ABP JJB75 (cell permeability) (RAW 264.7 cells) |
| --- | --- | --- | --- | --- |
| high micromolar range | 26.4 ± 3.31 µM | > 100 µM | CC[C@H](C)[C@@H]1NC(=O)[C@H](CC(C)C)NC(=O)[C@H](Cc2ccc(O)cc2)NC(=O)[C@H](C)NC(=O)[C@H](CCC(N)=O)NC(=O)[C@H](CO)NC(=O)[C@H](CCCCN)NC(=O)[C@H]([C@@H](C)O)NC(=O)[C@H](Cc2c[nH]c3ccccc23)NC(=O)[C@H]([C@@H](C)O)NC(=O)[C@H]([C@@H](C)CC)NC(=O)[C@H](C(C)C)NC(=O)[C@H](CCC(N)=O)NC(=O)[C@@H](Cc2ccc(O)cc2)NC(=O)CSC[C@@H](C(N)=O)NC(=O)[C@H](CCC(N)=O)NC1=O [D13] ({CH2CO}-[dY]QVITWTKSQAYLIQC-NH2; thioether N-16) |  |
|  |  |  | CC1=CC(C)=[N+]2C1=C(CCCCc1cn(C[C@@H]3[C@@H](O)[C@H](O)[C@@H](O)[C@@H]4O[C@H]34)nn1)c1c(C)cc(C)n1[B-]2(F)F [MDW933] | did show competition |
